Tests used:
[1] = compound: Cn1cnc2c(F)c(Nc3ccc(Br)cc3Cl)c(C(=O)NOCCO)cc21 [Selumetinib]; conditions: max 10 µM
In short: (§1)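 Cancer cell lines were plated in 1536-well plates in 7.5 μl of DMEM/F12 or RPMI with 10% FBS and kept 24 hours at 37°C and 5% CO2 before 72 hours of dosing, with final DMSO typically 0.2%. CellTiter-Glo 2.0 luminescence measured viability, scaled between blank-well and DMSO-well means. Dose responses were fitted to a two-parameter logistic curve with a non-linear mixed effects model. This fit gives the single-agent IC50.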

[2] = compound: NC1(c2ccc(-c3nc4ccn5c(=O)[nH]nc5c4cc3-c3ccccc3)cc2)CCC1 [MK-2206]; conditions: max 10 µM
In short: as §1

[3] = compound: C[C@@H]1COCCN1C2=NC(=NC(=C2)C3(CC3)[S@](=N)(=O)C)C4=C5C=CNC5=NC=C4 [AZD6738]; conditions: max 10 µM
In short: as §1

[4] = compound: O=c1[nH]cc(F)c(=O)[nH]1 [5-Fluorouracil]; conditions: max 20 µM
In short: as §1

[5] = compound: C[C@@H](c1ccc2nccn2c1)n1nnc2ncc(-c3cnn(C)c3)nc21 [Savolitinib]; conditions: max 1 µM
In short: as §1

[6] = compound: COc1nnc2ccc(N3CCC(c4ccc(OCCN5CCN(C)C(=O)[C@H]5C)cc4)CC3)nn12 [AZD5153]; conditions: max 1 µM
In short: as §1

[7] = compound: N#Cc1cnc(Nc2cc(NC[C@H]3CNCCO3)c(C(F)(F)F)cn2)cn1 [SRA737]; conditions: max 10 µM
In short: as §1

[8] = compound: Cc1c2c(nn1C)CSCc1cc(n(C)n1)CSc1cc(c3ccccc3c1)OCCCc1c(C(=O)O)n(C)c3c-2c(Cl)ccc13 [AZD5991]; conditions: max 1 µM
In short: as §1

[9] = compound: Nc1ccn([C@@H]2O[C@H](CO)[C@@H](O)C2(F)F)c(=O)n1 [Gemcitabine]; conditions: max 0.3 µM
In short: as §1

[10] = compound: C[C@@H](Oc1cc(-c2cnn(C3CCNCC3)c2)cnc1N)c1c(Cl)ccc(F)c1Cl [Crizotinib]; conditions: max 10 µM
In short: as §1

[11] = compound: CN(CC[C@H](CSC1=CC=CC=C1)NC2=C(C=C(C=C2)S(=O)(=O)NC(=O)C3=CC=C(C=C3)N4CCC(CC4)[C@H](C5=CC=CC=C5C6=CC=C(C=C6)Cl)O)S(=O)(=O)C(F)(F)F)CCO [AZD4320]; conditions: max 1 µM
In short: as §1

[12] = compound: CC(=O)Nc1cccc(-n2c(=O)n(C3CC3)c(=O)c3c(Nc4ccc(I)cc4F)n(C)c(=O)c(C)c32)c1 [Trametinib]; conditions: max 1 µM
In short: as §1

[13] = compound: Cc1cc2ncnn2cc1Nc1ncc2c(n1)n(C1CCOCC1)c(=O)n2C [AZD7648]; conditions: max 10 µM
In short: as §1

[14] = compound: COc1cc(Nc2ncc3c(n2)-c2ccc(Cl)cc2C(c2c(F)cccc2OC)=NC3)ccc1C(=O)O [Alisertib]; conditions: max 10 µM
In short: as §1

[15] = compound: COc1cc([C@@H]2c3cc4c(cc3[C@@H](O[C@@H]3O[C@@H]5CO[C@@H](C)O[C@H]5[C@H](O)[C@H]3O)[C@H]3COC(=O)[C@H]23)OCO4)cc(OC)c1O [Etoposide]; conditions: max 10 µM
In short: as §1

[16] = compound: CC1(C)CCC(CN2CCN(c3ccc(C(=O)NS(=O)(=O)c4ccc(NCC5CCOCC5)c([N+](=O)[O-])c4)c(Oc4cnc5[nH]ccc5c4)c3)CC2)=C(c2ccc(Cl)cc2)C1 [Venetoclax]; conditions: max 1 µM
In short: as §1

[17] = compound: C[C@@H](Nc1cc(F)cc(F)c1)c1cc(C(=O)N(C)C)cc2c(=O)cc(N3CCOCC3)oc12 [AZD8186]; conditions: max 10 µM
In short: as §1

[18] = compound: CC1=C(C(=CC=C1)Cl)NC(=O)C2=CN=C(S2)NC3=CC(=NC(=N3)C)N4CCN(CC4)CCO [Dasatinib]; conditions: max 2 µM
In short: as §1

[19] = compound: CC(C)n1c(=O)n(C)c2cnc3cc(F)c(-c4ccc(OCCCN5CCCCC5)nc4)cc3c21 [AZD1390]; conditions: max 0.3 µM
In short: as §1

[20] = compound: CC1=CN2[C@@H](C1)C=NC3=CC(=C(C=C3C2=O)OC)OCCCCCOC4=C(C=C5C(=C4)N=C[C@@H]6CC(=CN6C5=O)C)OC [SG3199]; conditions: max 0.001 µM
In short: as §1

[21] = compound: CCc1c2c(nc3ccc(O)cc13)-c1cc3c(c(=O)n1C2)COC(=O)[C@]3(O)CC [SN-38]; conditions: max 0.3 µM
In short: as §1

[22] = compound: C=CCn1c(=O)c2cnc(Nc3ccc(N4CCN(C)CC4)cc3)nc2n1-c1cccc(C(C)(C)O)n1 [AZD1775]; conditions: max 3 µM
In short: as §1

[23] = compound: COc1cccc(OCCCN)c1-c1cc(Nc2cnc(C#N)cn2)n[nH]1 [Prexasertib]; conditions: max 1 µM
In short: as §1

[24] = compound: O=C(c1cc(Cc2n[nH]c(=O)c3ccccc23)ccc1F)N1CCN(C(=O)C2CC2)CC1 [Olaparib]; conditions: max 10 µM
In short: as §1

[25] = compound: COc1cccc2c1C(=O)c1c(O)c3c(c(O)c1C2=O)C[C@@](O)(C(=O)CO)C[C@@H]3O[C@H]1C[C@H](N)[C@H](O)[C@H](C)O1 [Doxorubicin]; conditions: max 1 µM
In short: as §1

[26] = compound: O=C(Nc1ccc2[nH]nc(-c3ccncc3)c2c1)[C@@H]1CCN(CC(=O)N2CCN(c3ccc(-c4ncccn4)cc3)CC2)C1; conditions: max 5 µM
In short: as §1

[27] = compound: COc1cc2ncnc(Nc3ccc(F)c(Cl)c3)c2cc1OCCCN1CCOCC1 [Gefitinib]; conditions: max 10 µM
In short: as §1

[28] = compound: C1CN(CCC1(C(=O)N[C@@H](CCO)C2=CC=C(C=C2)Cl)N)C3=NC=NC4=C3C=CN4 [AZD5363]; conditions: max 10 µM
In short: as §1

[29] = compound: CN(C)CCCOc1ccc(-c2ccc3ncc4c(c3c2)n(C2CCOCC2)c(=O)n4C)cn1 [AZD0156]; conditions: max 3 µM
In short: as §1

[30] = compound: Cc1nc(-c2cn3c(n2)-c2ccc(-c4cnn(C(C)(C)C(N)=O)c4)cc2OCC3)n(C(C)C)n1 [Taselisib]; conditions: max 10 µM
In short: as §1

[31] = compound: C1CC(C1)(C(=O)[O-])C(=O)[O-].N.N.[Pt+2] [Carboplatin]; conditions: max 10 µM
In short: as §1

[32] = compound: CCN(CCO)CCCOc1ccc2c(Nc3cc(CC(=O)Nc4cccc(F)c4)[nH]n3)ncnc2c1 [AZD2811]; conditions: max 1 µM
In short: as §1

[33] = compound: CC(=O)O[C@H]1C(=O)[C@@]2(C)[C@H]([C@H](OC(=O)c3ccccc3)[C@]3(O)C[C@H](OC(=O)[C@H](O)[C@@H](NC(=O)c4ccccc4)c4ccccc4)C(C)=C1C3(C)C)[C@]1(OC(C)=O)CO[C@@H]1C[C@@H]2O [Paclitaxel]; conditions: max 3 µM
In short: as §1

[34] = compound: CC(=O)c1c(C)c2cnc(Nc3ccc(N4CCNCC4)cn3)nc2n(C2CCCC2)c1=O [Palbociclib]; conditions: max 10 µM
In short: as §1

[35] = compound: CS(=O)(=O)CCNCc1ccc(-c2ccc3ncnc(Nc4ccc(OCc5cccc(F)c5)c(Cl)c4)c3c2)o1 [Lapatinib]; conditions: max 10 µM
In short: as §1

Row | Cell Line | IC50, cell viability 72 h [1] [µM] | IC50, cell viability 72 h [2] [µM] | IC50, cell viability 72 h [3] [µM] | IC50, cell viability 72 h [4] [µM] | IC50, cell viability 72 h [5] [nM] | IC50, cell viability 72 h [6] [nM] | IC50, cell viability 72 h [7] [µM] | IC50, cell viability 72 h [8] [nM] | IC50, cell viability 72 h [9] [nM] | IC50, cell viability 72 h [10] [µM] | IC50, cell viability 72 h [11] [nM] | IC50, cell viability 72 h [12] [nM] | IC50, cell viability 72 h [13] [µM] | IC50, cell viability 72 h [14] [µM] | IC50, cell viability 72 h [15] [µM] | IC50, cell viability 72 h [16] [nM] | IC50, cell viability 72 h [17] [µM] | IC50, cell viability 72 h [18] [nM] | IC50, cell viability 72 h [19] [nM] | IC50, cell viability 72 h [20] [nM] | IC50, cell viability 72 h [21] [nM] | IC50, cell viability 72 h [22] [nM] | IC50, cell viability 72 h [23] [nM] | IC50, cell viability 72 h [24] [µM] | IC50, cell viability 72 h [25] [nM] | IC50, cell viability 72 h [26] [µM] | IC50, cell viability 72 h [27] [µM] | IC50, cell viability 72 h [28] [µM] | IC50, cell viability 72 h [29] [nM] | IC50, cell viability 72 h [30] [µM] | IC50, cell viability 72 h [31] [µM] | IC50, cell viability 72 h [32] [nM] | IC50, cell viability 72 h [33] [nM] | IC50, cell viability 72 h [34] [µM] | IC50, cell viability 72 h [35] [µM]
1 | PEO1 (Ovarian Carcinoma) | > 10 | > 10 | > 10 | > 20 | > 1000 | > 1000 | > 10 | > 1000 | > 300 | > 10 | > 1000 | > 1000 | > 10 | > 10 | > 10 | > 1000 | > 10 | > 2000 | > 300 | > 1 | 57.3 | 1540 | > 1000 | > 10 | > 1000 | > 5 | > 10 | > 10 | > 3000 | 8.19 | > 10 | > 1000 | 52.9 | > 10 | > 10
2 | SK-HEP-1 (Hepatocellular Carcinoma) | > 10 | 6.2 | > 10 | > 20 | > 1000 | > 1000 | > 10 | > 1000 | > 300 | > 10 | > 1000 | > 1000 | > 10 | > 10 | 7.4 | > 1000 | > 10 | > 2000 | > 300 | > 1 | 83.5 | > 3000 | > 1000 | > 10 | 698 | > 5 | > 10 | > 10 | > 3000 | > 10 | > 10 | > 1000 | 45.4 | 9.05 | > 10
3 | SW620 (Colorectal Carcinoma) | 0.911 | > 10 | > 10 | > 20 | > 1000 | > 1000 | > 10 | > 1000 | 97.6 | > 10 | > 1000 | 39.6 | > 10 | > 10 | 3.42 | > 1000 | > 10 | > 2000 | > 300 | > 1 | 32.2 | 1140 | 306 | > 10 | 640 | 0.928 | > 10 | > 10 | > 3000 | > 10 | > 10 | > 1000 | 116 | > 10 | > 10
4 | WM1552C (Melanoma) | 7.99 | > 10 | > 10 | > 20 | > 1000 | > 1000 | 6.18 | 759 | 52.2 | 6.26 | > 1000 | 158 | > 10 | 7.48 | > 10 | > 1000 | > 10 | 1810 | > 300 | > 1 | 152 | 1760 | 34.4 | > 10 | > 1000 | > 5 | > 10 | > 10 | > 3000 | 8.74 | > 10 | > 1000 | 51.5 | > 10 | > 10
